From publication PMC10102067, “Synthesis of vancomycin fluorescent probes that retain antimicrobial activity, identify Gram-positive bacteria, and detect Gram-negative outer membrane damage” (Communications Biology, 2023)
In brackets after ≈: the same amount, converted by molar mass. Structures can show the parent of a compound that is named as a salt. Where two headings read alike, the source gives them in different places. Bridge positions count the residues as written; N and C are the ends. Square brackets hold non-standard residues; d marks the D form. Peptide text beside a SMILES is read from it. * marks the point of attachment. Decanoyl(3R-OH) = CCCCCCC[C@@H](O)CC(=O)*; dDab = NCC[C@@H](N)C(=O)O; Dab = NCC[C@H](N)C(=O)O

Legend:
E. coli = test: microbe, parasite or virus in culture
Method: Bacteria were obtained from the American Type Culture Collection (ATCC; Manassas, VA, USA), Merck Sharp & Dohme (Kenilworth, NJ), the Coli Genetic Stock Center (CGSC, Yale University), Network on Antimicrobial Resistance in Staphylococcus aureus (NARSA) via BEI Resources (www.beiresources.org) and independent academic clinical isolate and mutant collections. All species used in this study were described fully in Table S4. Bacteria were cultured in Cation-Adjusted Mueller-Hinton Broth (CAMHB, Bacto Laboratories, Cat No. 212322) or Muller Hinton Broth (MHB, Bacto Laboratories, Cat No. 211443) at 37 °C overnight. A sample of each culture was then diluted 50-fold in MHB and incubated at 37 °C for 1.5–3 h. The stock solutions of vancomycin probes 7, 8 and 9 were prepared at 1.28 mg/mL in sterile water. The compounds were serially diluted two-fold across the wells, with concentrations ranging from 0.06 µg/mL to 128 µg/mL, plated in duplicate. […]

E. coli ATCC 25922 = test: Permeability test in Gram-negative bacteria, flow cytometry method (Fig. 4i); format: cell-based; details: compound 0.125–128 µg/mL 1 h 37 °C, then probe 9 32 µg/mL 30 min
Method: E. coli ATCC 25922 cells were cultured in LB at 37 °C overnight. […] The resultant mid-log phase cultures were harvested and washed once with HBSS, then resuspended in HBSS to an OD600 of 1. Then 1 mL of the cultures were transferred to Eppendorf tubes and centrifuged. Solutions (1 mL) of antibiotics (0.125–128 µg /mL) and isopropanol (100 %) was added, then left for 1 h at 37 °C with shaking (180 rpm). […] Bacteria were washed again with HBSS, the pellets were suspended in 200 µL of HBSS, and 100 µL of the suspended bacteria solution was added into black 96-well plates (Black flat bottom, 96-Well plate, Corning, Cat No. CLS3915-100EA) for Tecan plate reader measurement (Tecan Plate Reader, Infinite M1000 Pro). Excitation: 475 nm; Emission: 550 nm. On the other hand, suspended bacteria solution was then diluted 1000-fold in HBSS for flow cytometer measurement (Cytoflex S, Beckman Coulter, Inc. 250 S. Kraemer Blvd. Brea, CA 92821 U.S.A.). The detector used here was FITC (Excitation 488 nm; Emission 525/40 nm). 40000 events were collected. The data was analysed using Kaluza Analysis 2.1 software (Beckman Coulter, Inc. 250 S. Kraemer Blvd. Brea, CA 92821 U.S.A.) and statistical software GraphPad Prism 8 (San Diego, CA, U.S.A.).

[1] = Escherichia coli, ATCC25922, read-out: E. coli MIC, Table S2: ATCC 25922 FDA Control, CaMHB, non-treated polystyrene plate
[2] = Escherichia coli, ATCC25922, read-out: E. coli MIC, Table S2: ATCC 25922 FDA Control, MHB, non-treated polystyrene 96-well plate
[3] = Escherichia coli, read-out: E. coli MIC, Table S2: CGSC7139 DC2 mutant, CaMHB, non-treated polystyrene plate
[4] = Escherichia coli, read-out: E. coli MIC, Table S2: CGSC7139 DC2 mutant, MHB, non-treated polystyrene plate
[5] = Escherichia coli, read-out: E. coli MIC, Table S2: MB4827 K12, CaMHB, non-treated polystyrene plate
[6] = Escherichia coli, read-out: E. coli MIC, Table S2: MB4827 K12, MHB, non-treated polystyrene plate
[7] = Escherichia coli, read-out: E. coli MIC, Table S2: MB4902 LpxC mutant, CaMHB, non-treated polystyrene plate
[8] = Escherichia coli, read-out: E. coli MIC, Table S2: MB4902 LpxC mutant, MHB, non-treated polystyrene plate
[9] = Table S2: CGSC7139 DC2 mutant, CaMHB, non-treated polystyrene plate
[10] = Table S2: CGSC7139 DC2 mutant, MHB, non-treated polystyrene plate
[11] = Table S2: MB4902 LpxC mutant, CaMHB, non-treated polystyrene plate
[12] = Table S2: MB4902 LpxC mutant, MHB, non-treated polystyrene plate
[13] = Table S2: ATCC 25922 FDA Control, CaMHB, non-treated polystyrene plate
[14] = Table S2: ATCC 25922 FDA Control, MHB, non-treated polystyrene 96-well plate
[15] = Table S2: MB4827 K12, CaMHB, non-treated polystyrene plate
[16] = Table S2: MB4827 K12, MHB, non-treated polystyrene plate

Compound | MIC (E. coli; [3]) | MIC (E. coli; [4]) | MIC (E. coli; [7]) | MIC (E. coli; [8]) | outer membrane damage: fluorescence of probe 9 labelling after treatment (in words) (E. coli ATCC 25922) | E. coli MIC (E. coli; [9]) | E. coli MIC (E. coli; [10]) | E. coli MIC (E. coli; [11]) | E. coli MIC (E. coli; [12]) | further results
CNC(C)C1CCC(N)C(OC2C(N)CC(N)C(OC3OCC(C)(O)C(NC)C3O)C2O)O1 (centres unmarked) [Gentamicin sulfate] | 0.5 to 2 µg/mL | 0.5 to 4 µg/mL | 0.25 to 0.5 µg/mL | 0.25 to 0.5 µg/mL | – | – | – | – | – | MIC (E. coli; [1]): 1 µg/mL; MIC (E. coli; [2]): 2 µg/mL; MIC (E. coli; [5]): 0.5 to 1 µg/mL; MIC (E. coli; [6]): 0.5 to 1 µg/mL
CC[C@H](C)[C@H](NC(=O)[C@@H](NC(=O)[C@H](CO)NC(=O)[C@H](C)NC(=O)[C@@H](NC(=O)[C@H](CCCCN)NC(=O)[C@H](CCCCN)NC(=O)[C@@H](NC(=O)[C@@H](NC(=O)[C@H](CC(=O)O)NC(=O)[C@H](Cc1ccccc1)NC(=O)[C@H](CC(C)C)NC(=O)CN)C(C)C)[C@@H](C)CC)C(C)C)C(C)C)C(=O)NCC(=O)NCC(=O)N[C@@H](CC(C)C)C(N)=O [Citropin 1.1] (H-GLFDVIKKVASVIGGL-NH2; N-terminus and C-terminus assumed) | – | – | – | – | substantially higher concentrations before membrane damage was seen | – | – | – | – | –
CC[C@H]1OC(=O)[C@H](C)[C@@H](O[C@H]2C[C@@](C)(OC)[C@@H](O)[C@H](C)O2)[C@H](C)[C@@H](O[C@@H]2O[C@H](C)C[C@H](N(C)C)[C@H]2O)[C@](C)(O)C[C@@H](C)C(=O)[C@H](C)[C@@H](O)[C@]1(C)O [Erythromycin] | > 64 µg/mL | > 64 µg/mL | 8 µg/mL (≈ 10.9 µM) | 8 µg/mL (≈ 10.9 µM) | – | – | – | – | – | MIC (E. coli; [1]): 64 µg/mL (≈ 87.2 µM); MIC (E. coli; [2]): 64 µg/mL (≈ 87.2 µM); MIC (E. coli; [5]): > 64 µg/mL; MIC (E. coli; [6]): 64 µg/mL (≈ 87.2 µM)
COc1cc(Cc2cnc(N)nc2N)cc(OC)c1OC [Trimethoprim] | 0.25 to 0.5 µg/mL (≈ 0.861 to 1.72 µM) | 0.25 to 0.5 µg/mL (≈ 0.861 to 1.72 µM) | 0.5 to 1 µg/mL (≈ 1.72 to 3.44 µM) | 0.5 to 1 µg/mL (≈ 1.72 to 3.44 µM) | – | – | – | – | – | E. coli MIC (E. coli): 1 to 2 µg/mL; MIC (E. coli; Escherichia coli, ATCC25922, read-out: E. coli MIC): 1 µg/mL (≈ 3.44 µM); MIC (E. coli; Escherichia coli, read-out: E. coli MIC): 0.5 µg/mL (≈ 1.72 µM)
CCCCCCC[C@@H](O)CC(=O)N[C@H](CCN)C(=O)N[C@H]1CCNC(=O)[C@H](CC(C)C)NC(=O)[C@H](CCN)NC(=O)[C@H](CCN)NC(=O)[C@H](CC(C)C)NC(=O)[C@@H](Cc2ccccc2)NC(=O)[C@H](CCN)NC1=O [Octapeptin C4] ({Decanoyl(3R-OH)}-[dDab][Dab][Dab][dF]L[Dab][Dab]L; lactam 2-C (inferred); N-terminus assumed) | – | – | – | – | substantially higher concentrations before membrane damage was seen | 2 to 8 µg/mL | 1 to 2 µg/mL | 2 µg/mL | 2 µg/mL | –
Colistin sulfate | – | – | – | – | – | 0.125 to 0.25 µg/mL | 0.125 µg/mL | 0.03 to 0.06 µg/mL | 0.03 to 0.06 µg/mL | E. coli MIC (E. coli; [13]): 0.25 µg/mL; E. coli MIC (E. coli; [14]): 0.25 µg/mL; E. coli MIC (E. coli; [15]): 0.06 to 0.25 µg/mL; E. coli MIC (E. coli; [16]): 0.06 to 0.125 µg/mL
Polymyxin B | – | – | – | – | – | – | – | 0.03 to 0.06 µg/mL | 0.03 to 0.06 µg/mL | E. coli MIC (E. coli; ATCC 29522, NBS 96-well plates (Table 2)): 0.06 µg/mL; E. coli MIC (E. coli; CFT073, NBS plates (Table 2)): ≤0.03 µg/mL; E. coli MIC (E. coli; CFT073 WaaL mutant, NBS plates (Table 2)): ≤0.03 µg/mL; E. coli MIC (E. coli; DC2 mutant, NBS plates (Table 2)): ≤0.03 µg/mL; E. coli MIC (E. coli; LpxC mutant, NBS plates (Table 2)): ≤0.03 µg/mL; E. coli MIC (E. coli; MB4827 K12, NBS plates (Table 2)): ≤0.03 µg/mL; E. coli MIC (E. coli; [13]): 0.125 µg/mL; E. coli MIC (E. coli; [14]): 0.125 µg/mL; E. coli MIC (E. coli; [15]): 0.125 µg/mL; E. coli MIC (E. coli; [16]): 0.125 µg/mL
CC(C)[C@@H]1NC(=O)CNC(=O)[C@H](CC(N)=O)NC(=O)[C@H](CCCNC(=N)N)NC(=O)[C@H](Cc2ccc(O)cc2)NC(=O)[C@H](C(C)C)NC(=O)[C@@H]2CSSC[C@H](NC(=O)[C@H](C(C)C)NC(=O)[C@H](CCCNC(=N)N)NC1=O)C(=O)N[C@@H](Cc1ccc(O)cc1)C(=O)N[C@@H](CCCNC(=N)N)C(=O)N[C@@H](CCCNC(=N)N)C(=O)N[C@H](C(=O)N[C@@H](CC(N)=O)C(=O)O)CSSC[C@H](NC(=O)[C@H](Cc1ccccc1)NC(=O)CN)C(=O)N[C@@H](Cc1c[nH]c3ccccc13)C(=O)N[C@@H](Cc1ccc(O)cc1)C(=O)N[C@@H](C(C)C)C(=O)N2 [Arenicin-3] (H-GFCWYVCVYRNGVRVCYRRCN-OH; disulfide 3-20, 7-16; N-terminus and C-terminus assumed) | – | – | – | – | increased fluorescence at the lowest concentrations | 2 to 8 µg/mL | 2 to 8 µg/mL | 1 µg/mL | 1 to 2 µg/mL | –
CN[C@H](CC(C)C)C(=O)N[C@H]1C(=O)N[C@@H](CC(N)=O)C(=O)N[C@H]2C(=O)N[C@H]3C(=O)N[C@H](C(=O)N[C@H](C(=O)O)c4cc(O)cc(O)c4-c4cc3ccc4O)[C@H](O)c3ccc(c(Cl)c3)Oc3cc2cc(c3O[C@@H]2O[C@H](CO)[C@@H](O)[C@H](O)[C@H]2O[C@H]2C[C@](C)(N)[C@H](O)[C@H](C)O2)Oc2ccc(cc2Cl)[C@H]1O [1 Vancomycin, Vancomycin] | – | – | – | – | – | – | – | – | – | MIC (E. coli; 3 h): > 64 µg/mL
CC[C@H](C)[C@@H]1NC(=O)CNC(=O)[C@H](CCCNC(=N)N)NC(=O)[C@H](Cc2ccc(O)cc2)NC(=O)[C@@H]2CSSC[C@H](NC1=O)C(=O)N[C@@H](Cc1ccc(O)cc1)C(=O)N[C@@H](CCCNC(=N)N)C(=O)N[C@@H](CCCNC(=N)N)C(=O)N[C@H](C(=O)N[C@@H](CCCNC(=N)N)C(N)=O)CSSC[C@H](NC(=O)[C@H](Cc1c[nH]c3ccccc13)NC(=O)[C@@H](N)CCCCN)C(=O)N[C@@H](Cc1ccccc1)C(=O)N[C@@H](CCCNC(=N)N)C(=O)N[C@@H](C(C)C)C(=O)N2 [Tachyplesin-1] (H-KWCFRVCYRGICYRRCR-NH2; disulfide 3-16, 7-12 (inferred); N-terminus and C-terminus assumed) | – | – | – | – | increased fluorescence at the lowest concentrations | – | – | – | – | –
